Test results from patent US8577617B2, “Metabolic phenotyping” (priority 2002, dated 2013).
“And” between values parts separate entries of the source, which are not always exact repeats. Equal values may be shown once.

Test system: male Sprague-Dawley rats
Assay: Histopathology of liver after dosing galactosamine HCl
Format: in vivo, rat
Details: for histopathological changes: 200 mg/kg i.p.
Description: Thirty young adult age-matched male Sprague-Dawley rats were obtained from Charles River, France. After observation to ensure that they each appeared healthy they were placed in individual metabolism cages with free access to water and a standard commercial laboratory diet (diet AO4C from Usine d'Alimentation Rationnelle, Villemoisson-sur-Orge, France). The laboratory temperature was maintained at 20.+−−.2 degrees C. and the relative humidity at 60.±.20%. The laboratory air was filtered and changed 14 times per hour. A fixed ‘12 hours light-12 hours dark’ cycle was imposed. The study commenced after a short period of cage ‘acclimatisation’. At the time of dosing (at the start of day 1) the growing rats were each approximately 260 g in mass. Galactosamine (abbreviated GaIN) HCl (from Sigma, France) was dissolved in physiological saline and dosed by intraperitoneal injection at either 200 mg/kg or at 800 mg/kg; ten animals (nos. 101-110) received the low dose and ten animals (nos. 201-210) received the high dose. Ten control animals (nos. 1-10) received an oral dose of corn oil. Five of each group of ten rats were euthanased by means of CO2 on day 2 with the remainder being euthanased by the same technique on day 8. The early-euthanased rats were numbers 6-10, 106-110 and 206-210. The late-euthanased rats were numbers 1-5, 101-105 and 201-205. Blood was sampled from the orbital sinus, under isoflurane anaesthesia. Blood was sampled from all animals on day −3 and just prior to euthanasia on either day 2 or day 8. Following euthanasia each rat was sampled for histopathological examination with the sampling including taking ten liver samples from each rat (two from each liver lobe). The blood samples were collected into vials containing lithium heparin as anticoagulant and immediately centrifuged at approx. minus four degrees C. to separate plasma. A portion of each plasma sample was analysed at thirty degrees C. on an AU600 multiparametric clinical analyser (Olympus) for a range of clinical chemistry parameters including alanine aminotransferase (ALT) and aspartate aminotransferase (AST) amongst many others.

Structure (SMILES): Cl.N[C@H]1C(O)O[C@H](CO)[C@H](O)[C@@H]1O (some centres unmarked) [galactosamine HCl, galactosamine hydrochloride]
- histopathological changes (day 2): No differences
- histopathological changes (day 8): No differences
- animals with multifocal randomly scattered foci of hepatocellular necrosis (800 mg/kg i.p., day 2): hepatocellular necrosis were present in 4/5
- severity of changes (hepatocellular necrosis) (800 mg/kg i.p., day 2, individual animals 206-210, hydrochloride): 207 - mild and 206, 210 - marked and 209 - severe and 208 - none
- animals with minimal bile duct hyperplasia (800 mg/kg i.p., day 8): Minimal bile duct hyperplasia was found in 2/5
